Two molecules from patent publication US20090118336A1, “PYRAZOLE DERIVATIVES AND THEIR USE AS PI3K INHIBITORS” (priority 2006, published 2009) can be followed below.

The structures appear in SMILES notation. pIC50: −log10 of the molar value.

For orientation: pIC50 means the IC50 on a negative log10 scale, so that one unit is a factor of ten.

Experiment [1] has as its target mTOR PI kinase-related kinase (Homo sapiens, UniProt P42345). As to the kind of experiment: In vitro mTOR PI kinase-related kinase assay (AlphaScreen), Test (b). It counts as biochemical. Particulars: recombinant mTOR (1362-2549), ATP 20 μM, read-out: IC50 versus mTOR PI kinase-related kinase. On the procedure: (b) In Vitro mTOR PI Kinase-Related Kinase Assay
The assay used AlphaScreen technology (Gray et al., Analytical Biochemistry, 2003, 313: 234-245) to determine the ability of test compounds to inhibit phosphorylation by recombinant mTOR. […]
Each reaction was stopped by the addition of 10 μl of a mixture of EDTA (50 mM), bovine serum albumin (BSA; 0.5 mg/ml) and Tris-HCl pH7.4 buffer (50 mM) containing p70 S6 Kinase (T389) 1A5 Monoclonal Antibody (Cell Signalling Technology, Catalogue No. 9206B) and AlphaScreen Streptavidin donor and Protein A acceptor beads (200 ng; Perkin Elmer, Catalogue No. 6760002B and 6760137R respectively) were added and the assay plates were left for about 20 hours at room temperature in the dark. The resultant signals arising from laser light excitation at 680 nm were read using a Packard Envision instrument.
Phosphorylated biotinylated peptide is formed in situ as a result of mTOR mediated phosphorylation. […] Upon laser light excitation at 680 nm, the donor bead: acceptor bead complex produces a signal that can be measured. […]
mTOR enzyme inhibition for a given test compound was expressed as an IC50 value.
For orientation: In Alpha technology, singlet oxygen from a donor bead excites a nearby acceptor bead.

The target of the next experiment is T1, p110α Type Ia human PI3K (Homo sapiens, UniProt P42336).
T1 construct: full length DNA of each of the p110α, p110β and p110δ Type Ia human PI3K p110 isoforms; 6-His; made in house
The experiment in a line: In vitro PI3K enzyme assay (AlphaScreen), Test (a). Particulars: recombinant enzyme, PI(4,5)P2 substrate, ATP 4 μM, read-out: IC50 versus p110α Type Ia human PI3K. The class given is biochemical. An excerpt:
(a) In Vitro PI3K Enzyme Assay
The assay used AlphaScreen technology (Gray et al., Analytical Biochemistry, 2003, 313: 234-245) to determine the ability of test compounds to inhibit phosphorylation by recombinant Type I PI3K enzymes of the lipid PI(4,5)P2.
DNA fragments encoding human PI3K catalytic and regulatory subunits were isolated from cDNA libraries using standard molecular biology and PCR cloning techniques. The selected DNA fragments were used to generate baculovirus expression vectors. In particular, full length DNA of each of the p110α, p110β and p110δ Type Ia human PI3K p110 isoforms (EMBL Accession Nos. HSU79143, S67334, Y10055 for p110α, p110β and p110δ respectively) were sub-cloned into a pDEST10 vector (Invitrogen Limited, Fountain Drive, Paisley, UK). The vector is a Gateway-adapted version of Fastbac1 containing a 6-His epitope tag. […]
Biotinylated-DiC8-PI(3,4,5)P3 ([…]; Cell Signals Inc., Catalogue No. 107), recombinant purified GST-Grp1 PH protein (2.5 nM) and AlphaScreen Anti-GST donor and acceptor beads (100 ng; Packard Bioscience Limited, Station Road, Pangbourne, Berkshire, UK, Catalogue No. 6760603M) were added and the assay plates were left for about 5 to 20 hours at room temperature in the dark. The resultant signals arising from laser light excitation at 680 nm were read using a Packard AlphaQuest instrument. […]

Chain of mTOR PI kinase-related kinase (P42345 1362-2549): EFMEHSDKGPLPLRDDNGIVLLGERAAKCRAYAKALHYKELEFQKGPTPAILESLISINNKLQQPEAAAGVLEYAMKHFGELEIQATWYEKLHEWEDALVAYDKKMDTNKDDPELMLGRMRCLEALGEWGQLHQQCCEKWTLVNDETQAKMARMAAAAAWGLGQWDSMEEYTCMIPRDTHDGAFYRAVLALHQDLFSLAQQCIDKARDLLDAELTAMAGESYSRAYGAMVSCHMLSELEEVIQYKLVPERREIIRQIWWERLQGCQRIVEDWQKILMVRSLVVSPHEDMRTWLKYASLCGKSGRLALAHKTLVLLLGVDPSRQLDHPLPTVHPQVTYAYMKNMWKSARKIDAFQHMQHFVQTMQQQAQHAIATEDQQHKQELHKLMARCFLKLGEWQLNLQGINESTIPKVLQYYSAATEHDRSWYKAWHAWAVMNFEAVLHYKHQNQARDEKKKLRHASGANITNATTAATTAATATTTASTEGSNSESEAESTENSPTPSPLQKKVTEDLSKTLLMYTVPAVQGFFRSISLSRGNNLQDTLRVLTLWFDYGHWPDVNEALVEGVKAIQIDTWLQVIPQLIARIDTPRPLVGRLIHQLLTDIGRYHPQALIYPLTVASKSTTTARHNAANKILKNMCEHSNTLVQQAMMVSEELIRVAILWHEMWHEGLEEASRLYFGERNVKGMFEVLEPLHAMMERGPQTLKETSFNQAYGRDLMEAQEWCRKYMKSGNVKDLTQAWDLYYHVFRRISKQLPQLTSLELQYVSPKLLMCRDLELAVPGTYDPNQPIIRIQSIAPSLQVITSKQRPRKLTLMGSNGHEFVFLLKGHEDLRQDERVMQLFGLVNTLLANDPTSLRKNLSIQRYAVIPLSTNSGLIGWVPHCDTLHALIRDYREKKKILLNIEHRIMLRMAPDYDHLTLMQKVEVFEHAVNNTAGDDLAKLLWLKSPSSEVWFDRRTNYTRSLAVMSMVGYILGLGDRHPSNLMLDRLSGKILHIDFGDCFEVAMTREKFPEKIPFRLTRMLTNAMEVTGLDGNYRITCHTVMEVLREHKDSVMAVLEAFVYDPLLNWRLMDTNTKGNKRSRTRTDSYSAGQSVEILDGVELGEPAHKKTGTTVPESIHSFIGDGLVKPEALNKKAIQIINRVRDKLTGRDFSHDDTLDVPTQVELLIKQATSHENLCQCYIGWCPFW
T1 sequence (P42336 whole entry, canonical isoform): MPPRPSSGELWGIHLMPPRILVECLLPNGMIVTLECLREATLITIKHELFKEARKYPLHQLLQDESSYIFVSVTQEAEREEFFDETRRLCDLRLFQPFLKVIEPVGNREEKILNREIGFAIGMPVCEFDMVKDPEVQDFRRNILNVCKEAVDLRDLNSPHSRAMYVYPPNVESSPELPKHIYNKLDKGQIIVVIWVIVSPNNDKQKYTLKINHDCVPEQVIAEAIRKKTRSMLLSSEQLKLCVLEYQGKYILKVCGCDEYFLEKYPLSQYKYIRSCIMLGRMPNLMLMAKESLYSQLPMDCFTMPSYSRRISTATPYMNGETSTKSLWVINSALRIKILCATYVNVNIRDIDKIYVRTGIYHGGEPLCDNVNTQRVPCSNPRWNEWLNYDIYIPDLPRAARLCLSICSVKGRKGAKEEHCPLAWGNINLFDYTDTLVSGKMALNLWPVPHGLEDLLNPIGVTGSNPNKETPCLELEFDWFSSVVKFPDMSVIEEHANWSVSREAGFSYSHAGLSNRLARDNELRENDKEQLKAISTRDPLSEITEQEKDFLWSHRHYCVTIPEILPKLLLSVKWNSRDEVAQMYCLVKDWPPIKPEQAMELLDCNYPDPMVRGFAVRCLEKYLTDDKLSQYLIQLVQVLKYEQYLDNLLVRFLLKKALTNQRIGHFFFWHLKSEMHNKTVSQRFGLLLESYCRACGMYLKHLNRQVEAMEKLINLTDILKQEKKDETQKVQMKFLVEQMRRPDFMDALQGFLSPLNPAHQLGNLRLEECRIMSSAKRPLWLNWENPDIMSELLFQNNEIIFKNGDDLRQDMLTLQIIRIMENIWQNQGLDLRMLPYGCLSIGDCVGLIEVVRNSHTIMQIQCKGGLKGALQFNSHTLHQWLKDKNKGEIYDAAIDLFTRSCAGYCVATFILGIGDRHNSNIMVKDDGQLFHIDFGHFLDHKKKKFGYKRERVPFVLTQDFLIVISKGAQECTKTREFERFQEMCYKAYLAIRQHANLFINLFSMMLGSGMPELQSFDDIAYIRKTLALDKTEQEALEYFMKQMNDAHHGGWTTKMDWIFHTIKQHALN
T1 sequence (P27986 whole entry partner, canonical isoform): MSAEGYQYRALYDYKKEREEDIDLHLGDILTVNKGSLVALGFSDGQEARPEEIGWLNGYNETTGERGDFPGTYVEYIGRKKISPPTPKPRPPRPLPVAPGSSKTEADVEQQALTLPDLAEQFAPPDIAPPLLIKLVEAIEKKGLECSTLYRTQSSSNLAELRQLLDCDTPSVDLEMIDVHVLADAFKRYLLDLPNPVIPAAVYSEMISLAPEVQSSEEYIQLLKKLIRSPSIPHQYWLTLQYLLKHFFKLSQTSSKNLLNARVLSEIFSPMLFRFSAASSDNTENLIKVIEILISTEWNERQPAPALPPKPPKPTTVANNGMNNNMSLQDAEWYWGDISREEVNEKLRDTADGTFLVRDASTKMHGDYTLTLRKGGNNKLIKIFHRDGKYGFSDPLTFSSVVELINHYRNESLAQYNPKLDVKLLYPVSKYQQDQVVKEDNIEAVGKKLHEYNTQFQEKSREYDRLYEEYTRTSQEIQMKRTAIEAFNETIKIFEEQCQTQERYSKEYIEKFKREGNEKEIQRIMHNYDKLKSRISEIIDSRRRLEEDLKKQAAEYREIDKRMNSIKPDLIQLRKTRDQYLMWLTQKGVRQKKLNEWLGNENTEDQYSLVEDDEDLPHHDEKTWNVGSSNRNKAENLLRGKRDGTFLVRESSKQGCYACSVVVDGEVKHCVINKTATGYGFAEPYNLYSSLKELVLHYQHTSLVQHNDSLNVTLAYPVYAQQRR

Regarding `CC(=O)Nc1cc(-c2cncc(NS(C)(=O)=O)c2)n(C)n1` [Example 1, N-[5-(5-methanesulphonamidopyridin-3-yl)-1-methyl-1H-pyrazol-3-yl]acetamide], the values for the pIC50 (in experiment [1]; at p110α Type Ia human PI3K) were ~4.40 and ~5.30, respectively.

Turning to `CC(=O)Nc1cc(-c2cncc(NS(=O)(=O)c3c(C)nn(C)c3Cl)c2)n(C)n1` [Example 3, N-{5-[5-(5-chloro-1,3-dimethyl-1H-pyrazol-4-ylsulphonamido)pyridin-3-yl]-1-methyl-1H-pyrazol-3-yl}acetamide], the pIC50 in experiment [1] was ~5.70; on p110α Type Ia human PI3K, ~6.30.
